The NIST ThermoML archive (doi:10.1021/je049685z)

Columns and labels:
[1] = xn = mol fraction of the nth substance listed; details: Liquid, x1 = 1
[2] = Liquid

CCCO [propan-1-ol] + Cc1ccccc1
mass density [kg/m3], [1]
Details	100 kPa	5000 kPa	10000 kPa	15000 kPa	20000 kPa	25000 kPa	30000 kPa
303.15 K	795.6	799.5	803.4	807	810.5	813.9	817.2
313.15 K	787.6	791.6	795.7	799.5	803.2	806.7	810.1
323.15 K	779.1	783.4	787.7	791.7	795.6	799.3	802.9
333.15 K	770.6	775.1	779.6	783.9	787.9	791.8	795.5

Cc1ccccc1 [toluene]
mass density [kg/m3], [2]
Details	100 kPa	5000 kPa	10000 kPa	15000 kPa	20000 kPa	25000 kPa	30000 kPa
303.15 K	857.4	861.3	865.1	868.7	872.3	875.6	878.9
313.15 K	848.1	852.1	856.2	860	863.7	867.2	870.7
323.15 K	838.6	842.9	847.2	851.2	855.1	858.9	862.5
333.15 K	829.2	833.7	838.2	842.5	846.6	850.5	854.3

CCCO [propan-1-ol]
mass density [kg/m3], [2]
Details	100 kPa	5000 kPa	10000 kPa	15000 kPa	20000 kPa	25000 kPa	30000 kPa
303.15 K	795.6	799.5	803.4	807	810.5	813.9	817.2
313.15 K	787.6	791.6	795.7	799.5	803.2	806.7	810.1
323.15 K	779.1	783.4	787.7	791.7	795.6	799.3	802.9
333.15 K	770.6	775.1	779.6	783.9	787.9	791.8	795.5
